Reference: US20100160262A1, “COMPOSITIONS AND METHODS FOR MODULATING SIRTUIN ACTIVITY” (priority 2008, published 2010)

Assays:
[1] = system: HIV LTR luciferase (Tat/AcTat transactivation); assay: Nuclear microinjection of synthetic Tat or AcTat with HIV LTR luciferase reporter into HeLa cells; assay type: cell-based; settings: for basal HIV promoter activity / transcriptional activity of AcTat (transactivation of the HIV promoter): TSA 400 nM or nicotinamide 5 mM for four hours, siRNA 48 hours before microinjection
Experimental: Subconfluent MEFs (70%) were grown on Cellocate coverslips (Eppendorf, Westbury, N.Y.), and nuclear microinjections were performed at room temperature with an automated injection system (Eppendorf Micromanipulator 5171 together with Eppendorf Transjector 5246). Samples were prepared as a 20 μl injection mix containing the HIV LTR luciferase reporter or 5xUAS luciferase (each 100 ng/μl), RSV-Tat (10 ng/μl) or Ga14-VP16 (50 ng/μl), CMV-CyclinT1 (100 ng/μl), CMV-SIRT1 (100 or 300 ng/μl) together with CMV-GFP (50 ng/μl) in sterile water. Six hours after microinjection, cells were examined under a Nikon Eclipse TE300 inverted fluorescent microscope to determine the number of GFP-positive cells, washed in cold phosphate buffer, and stored at −70° C. for luciferase assays (Promega). In HeLa cells, synthetic Tat or AcTat proteins (each 30 or 100 ng/μl) were co-injected with the wildtype or mutant HIV LTR luciferase reporters (each 100 ng/μl) together with CMV-GFP (50 ng/μl) and harvested four hours after injection. Cells were treated immediately after injection with 5,6-dichlorobenzimidazole riboside (DRB; 10 or 50 μM; Sigma), TSA (400 nM), or nicotinamide (5 mM). Microinjections in siRNA-treated cells were performed 48 hours after siRNA transfection.

[2] = system: Tat-dependent HIV transcription (HIV LTR luciferase); assay: Tat transactivation of HIV LTR luciferase reporter in transfected HeLa cells; assay type: cell-based; settings: ~1 μM, 8 hours
Experimental: (§1) In co-transfection experiments, human CMV-SIRT1 or CMV-SIRT1H363Y (600 ng) was co-transfected into HeLa cells plated in six-well plates with the HIV LTR luciferase reporter (200 ng) or the LTRΔNF-kB-luciferase reporter (200 ng) and increasing amounts of RSV-Tat (0 ng, 2 ng, 20 ng, and 200 ng) using the lipofectamine reagents (Invitrogen). In the control experiment, RSV-Tat was replaced by RSV luciferase (200 ng), and the HIV LTR luciferase construct was replaced by the HIV LTR CAT reporter. […] The RSV-luciferase construct was used as described above. […] Cells were harvested 8 hr later and processed for luciferase assays.

RSV LTR = assay: RSV luciferase control reporter in transfected HeLa cells; assay type: cell-based, Rous sarcoma virus; settings: 1 μM
Experimental: as §1

p53 = p53 acetylation; assay type: cell-based; settings: 1 μM
[3] = system: HIVNL4-3 containing the GFP open reading frame in place of nef; assay: Single-cycle HIV infection of Jurkat T cells, GFP expression by flow cytometry; assay type: cell-based; settings: 1 μM, 36 hours after overnight infection
Experimental: (§2) The HIV molecular clone (HIV-R7/E^−/GFP) containing the GFP open reading frame in place of the nef gene and a frameshift mutation in the env gene as well as the method to generate pseudotyped viral particles with VSV-G was previously described. Jordan et al. (2003) Embo J 22: 1868-1877. The number of infective particles per ml was established by infecting 3×10^5 Jurkat cells with different amounts of viral suspension. The titer of the viral stock was measured by flow cytometry analysis of GFP expression 48 hours after infection. The pHR′-EF-1α/GFP construct is a minimal nonreplicative HIV-1 genome containing a heterologous promoter (EF-1α) driving GFP expression. Naldini et al. (1996) Science 272: 263-267. […]. Zufferey et al. (1997) Nat Biotechnol 15: 871-875. All vectors for the production of HIV-based lentiviral vectors were provided by D. Trono, University of Geneva, Switzerland. Jurkat T cells were incubated overnight with HIV-R7/E^−/GFP or pHR′-EF-1α/GFP viral particles at a theoretical multiplicity of infection (m.o.i.) of 0.5 in 24-well plates. […] Viral infection was monitored 36 hours later by flow cytometry analysis using a Calibur FACScan (Becton Dickinson).

[4] = system: EF-1α promoter GFP expression; assay: HIV-based lentiviral vector with EF-1α promoter driving GFP in Jurkat T cells; assay type: cell-based; settings: 1 μM, 36 hours
Experimental: as §2

SIRT1 = target: T1, SIRT1 (Homo sapiens, UniProt Q96EB6); assay: In vitro Tat deacetylation assay with immunoprecipitated SIRT1; assay type: biochemical; settings: immunoprecipitated SIRT1, AcTat, NAD+; western blot α-AcTat; nicotinamide 5 mM, TSA 400 nM
T1 construct: made in house; host or cells: 293 cells (HEK 293), transient transfection, anti-FLAG M2 agarose immunoprecipitate
T1 sequence (Q96EB6 1-747): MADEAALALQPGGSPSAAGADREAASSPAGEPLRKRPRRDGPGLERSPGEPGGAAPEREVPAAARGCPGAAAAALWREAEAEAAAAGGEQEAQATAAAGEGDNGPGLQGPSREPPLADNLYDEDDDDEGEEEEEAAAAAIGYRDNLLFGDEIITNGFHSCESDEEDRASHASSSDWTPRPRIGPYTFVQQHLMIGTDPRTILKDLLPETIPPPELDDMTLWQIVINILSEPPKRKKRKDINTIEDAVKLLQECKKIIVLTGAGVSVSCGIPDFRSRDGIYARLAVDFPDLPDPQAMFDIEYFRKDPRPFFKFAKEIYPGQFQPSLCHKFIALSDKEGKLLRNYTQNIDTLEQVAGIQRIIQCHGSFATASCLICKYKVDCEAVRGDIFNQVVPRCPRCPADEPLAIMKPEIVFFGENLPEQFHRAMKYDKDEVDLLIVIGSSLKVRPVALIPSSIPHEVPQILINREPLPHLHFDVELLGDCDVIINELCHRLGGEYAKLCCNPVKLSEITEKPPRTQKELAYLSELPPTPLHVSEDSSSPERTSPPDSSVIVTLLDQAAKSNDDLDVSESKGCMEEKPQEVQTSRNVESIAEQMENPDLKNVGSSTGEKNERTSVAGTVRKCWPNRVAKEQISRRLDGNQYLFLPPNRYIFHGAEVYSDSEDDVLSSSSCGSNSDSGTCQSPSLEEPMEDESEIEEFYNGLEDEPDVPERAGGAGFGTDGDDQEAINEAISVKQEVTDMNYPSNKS
Experimental: Human SIRT1-7 FLAG-tagged plasmids were transfected in 293 cells with lipofectamine reagent (Invitrogen). Cells were lysed 24 hours after transfection with lysis buffer (50 mM Tris-Hcl, pH 7.5, 0.5 mM EDTA, 0.5% NP40, 150 mM NaCl) in the presence of protease inhibitors (Roche Molecular Biochemicals, Indianapolis, Ind.). Equal amounts of total proteins were immunoprecipitated with α-FLAG (anti-FLAG antibody) coupled to M2 agarose beads (Sigma, St Louis, Mo.), for 2 hours at 4° C. Immunoprecipitated material was washed twice with immunoprecipitation (IP) buffer and one time with SIRT deacetylation buffer (50 mM Tris-HCl pH 9, 4 mM MgCl2, 0.2 mM DTT). The beads were resuspended in 100 μl SIRT deacetylation buffer containing 1 μg synthetic Tat (72 amino acids) carrying an N-terminal biotin label and an acetyl group at position 50. Kaehlcke et al. (2003), supra. Reactions containing TSA (400 nM, WACO Bioproducts, Richmond, Va.) or nicotinamide (5 mM, Sigma) were preincubated for 10 min at room temperature. […] Reactions were stopped by the addition of SDS loading buffer, boiled, and after brief centrifugation, analyzed by western blotting with rabbit α-AcTat antibodies (Kaehlcke et al. (2003), supra) or horseradish peroxidase-conjugated streptavidin (Jackson Immunoresearch Laboratories, West Grove, Pa.). SIRT1-7 proteins were detected with polyclonal α-FLAG antibodies (Sigma).

| SMILES | SIRT1-mediated deacetylation of Tat (SIRT1) | basal HIV promoter activity [1] | transcriptional activity of AcTat (transactivation of the HIV promoter) [1] | further results |
| --- | --- | --- | --- | --- |
| OC[C@H]1O[C@@H](n2cnc3cc(Cl)c(Cl)cc32)[C@H](O)[C@@H]1O [DRB, 5,6-dichlorobenzimidazole riboside] | – | – | – | transactivation by both Tat proteins (Tat and AcTat) ([1]; DRB 10 or 50 μM, four hours): inhibited in a dose-dependent manner |
| O=C1Oc2ccc3cc(Br)ccc3c2CC1c1ccccc1 (stereo not drawn) [HR73] | – | – | – | suppression of Tat-dependent HIV transcription [2]: 3 fold; activity of the RSV LTR (RSV LTR): did not suppress; acetylation of p53 (p53): induced hyperacetylation; reduction of HIV gene expression as measured by GFP expression [3]: 5 fold; GFP expression from the EF-1α promoter [4]: not affected |
| CC(/C=C/C(=O)NO)=C\[C@@H](C)C(=O)c1ccc(N(C)C)cc1 [TSA] | no effect | enhanced | enhanced | – |
| NC(=O)c1cccnc1 [nicotinamide] | completely inhibited | stimulating | blocked | – |
